# Data from publication PMC9090415, “Discovery of small molecule inhibitors of Plasmodium falciparum apicoplast DNA polymerase” (Journal of Enzyme Inhibition and Medicinal Chemistry, 2022).
# Biological target: P. falciparum apicoplast DNA polymerase (Pf-apPOL) (Plasmodium falciparum, UniProt Q8ILY1)
# Assay: Fluorescence-based high-throughput DNA polymerase assay (molecular beacon), primary screen and dose-response;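 as to % inhibition ApPOL 90': test concentration in µM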;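 as to % inhibition Apol 40': compound concentration given in µM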;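 as to % inhibition apPOL 180': test concentration in µM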
# Type: biochemical
# Conditions: for DNA Pol: 90 min, 10 µM
# Summary of the method: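 Single-point screening used 10 µM compound with 20 nM polymerase, 20 nM hairpin substrate and 6 µM dNTPs for 90 min at 25 °C. Confirmatory titrations (2.5–80 µM) followed fluorescence at three times, and IC50 was derived from a fit including a cooperativity term n.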
# [1] = 'DNA Pol' of the 186 hits list (primary screen value)
# [2] = first dose-response set, concentration 80
# P. falciparum apicoplast DNA polymerase (Pf-apPOL), sequence (Q8ILY1 entry or part of it): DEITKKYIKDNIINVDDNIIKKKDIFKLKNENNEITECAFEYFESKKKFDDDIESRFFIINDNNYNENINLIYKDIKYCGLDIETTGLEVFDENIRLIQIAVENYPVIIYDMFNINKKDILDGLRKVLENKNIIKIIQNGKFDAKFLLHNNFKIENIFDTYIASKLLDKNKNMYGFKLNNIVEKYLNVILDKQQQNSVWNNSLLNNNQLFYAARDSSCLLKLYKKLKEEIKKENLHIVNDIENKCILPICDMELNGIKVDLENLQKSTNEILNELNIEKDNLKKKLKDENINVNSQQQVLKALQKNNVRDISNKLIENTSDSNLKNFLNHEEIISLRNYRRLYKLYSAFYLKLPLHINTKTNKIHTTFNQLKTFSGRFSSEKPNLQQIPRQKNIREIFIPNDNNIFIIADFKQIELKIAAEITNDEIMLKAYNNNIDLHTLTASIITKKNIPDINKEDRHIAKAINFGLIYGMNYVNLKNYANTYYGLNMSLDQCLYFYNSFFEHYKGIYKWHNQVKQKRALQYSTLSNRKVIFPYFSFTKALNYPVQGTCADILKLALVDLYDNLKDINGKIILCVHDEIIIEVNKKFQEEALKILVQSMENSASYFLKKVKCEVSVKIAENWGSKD
smiles,measurement,setting,value
"COc1ccc(-c2cc3nc4c(c(=O)n3[nH]2)CCN(C(=O)CCc2ccccc2)C4)cc1 [Molecule 17, COc1ccc(cc1)c1[nH]n2c(c1)nc1c(c2=O)CCN(C1)C(=O)CCc1ccccc1]",DNA Pol,[1],52
same,DNA Pol,DNA Pol (primary screen value),52
same,% inhibition Apo pol 10',"DRC-1, concentration 2.5",3%
same,% inhibition Apo pol 10',"DRC-1, concentration 5",30%
same,% inhibition Apo pol 10',"DRC-1, concentration 10",64%
same,% inhibition Apo pol 10',"DRC-1, concentration 20",81%
same,% inhibition Apo pol 10',"DRC-1, concentration 40",82%
same,% inhibition Apo pol 10',"DRC-1, concentration 80",78%
same,% inhibition Apol 90',"DRC-1, concentration 2.5",-3.33%
same,% inhibition Apol 90',"DRC-1, concentration 5",18%
same,% inhibition Apol 90',"DRC-1, concentration 10",49%
same,% inhibition Apol 90',"DRC-1, concentration 20",69%
same,% inhibition Apol 90',"DRC-1, concentration 40",72%
same,% inhibition Apol 90',"DRC-1, concentration 80",78%
same,% inhibition apPOL 180',"DRC-1, concentration 2.5",-7%
same,% inhibition apPOL 180',"DRC-1, concentration 5",7.5%
same,% inhibition apPOL 180',"DRC-1, concentration 10",34%
same,% inhibition apPOL 180',"DRC-1, concentration 20",55%
same,% inhibition apPOL 180',"DRC-1, concentration 40",58%
same,% inhibition apPOL 180',"DRC-1, concentration 80",70%
same,% inhibition Apo pol 5',"DRC-2, concentration 2.5",-5.33%
same,% inhibition Apo pol 5',"DRC-2, concentration 5",12%
same,% inhibition Apo pol 5',"DRC-2, concentration 10",31%
same,% inhibition Apo pol 5',"DRC-2, concentration 20",43%
same,% inhibition Apo pol 5',"DRC-2, concentration 40",44%
same,% inhibition Apo pol 5',"DRC-2, concentration 80",38%
same,% inhibition Apol 40',"DRC-2, concentration 2.5",-5.29%
same,% inhibition Apol 40',"DRC-2, concentration 5",14%
same,% inhibition Apol 40',"DRC-2, concentration 10",35%
same,% inhibition Apol 40',"DRC-2, concentration 20",54%
same,% inhibition Apol 40',"DRC-2, concentration 40",57%
same,% inhibition Apol 40',"DRC-2, concentration 80",58%
same,% inhibition ApPOL 90',"DRC-2, concentration 2.5",-4.53%
same,% inhibition ApPOL 90',"DRC-2, concentration 5",13%
same,% inhibition ApPOL 90',"DRC-2, concentration 10",33%
same,% inhibition ApPOL 90',"DRC-2, concentration 20",53%
same,% inhibition ApPOL 90',"DRC-2, concentration 40",57%
same,% inhibition ApPOL 90',"DRC-2, concentration 80",61%
same,% inhibition apPOL 180',"DRC-2, concentration 2.5",-5%
same,% inhibition apPOL 180',"DRC-2, concentration 5",6%
same,% inhibition apPOL 180',"DRC-2, concentration 10",24%
same,% inhibition apPOL 180',"DRC-2, concentration 20",44%
same,% inhibition apPOL 180',"DRC-2, concentration 40",50%
same,% inhibition apPOL 180',"DRC-2, concentration 80",58%
same,% inhibition Apo pol 10',[2],78%
same,% inhibition Apol 90',[2],78%
same,% inhibition apPOL 180',"first dose-response set, concentration 40",58%
"O=C(Cn1ccc2c(=O)[nH]ccc21)Nc1cc(F)ccc1F [Molecule 42, O=C(Cn1ccc2c1cc[nH]c2=O)Nc1cc(F)ccc1F]",DNA Pol,[1],40
same,DNA Pol,DNA Pol (primary screen value),40
same,% inhibition Apo pol 10',"DRC-1, concentration 2.5",-0.6304%
same,% inhibition Apo pol 10',"DRC-1, concentration 5",13.4677%
same,% inhibition Apo pol 10',"DRC-1, concentration 10",49.4515%
same,% inhibition Apo pol 10',"DRC-1, concentration 20",62.1247%
same,% inhibition Apo pol 10',"DRC-1, concentration 40",77.421%
same,% inhibition Apo pol 10',"DRC-1, concentration 80",76.1541%
same,% inhibition Apol 90',"DRC-1, concentration 2.5",-3.25%
same,% inhibition Apol 90',"DRC-1, concentration 5",4.148%
same,% inhibition Apol 90',"DRC-1, concentration 10",35.5527%
same,% inhibition Apol 90',"DRC-1, concentration 20",52.2284%
same,% inhibition Apol 90',"DRC-1, concentration 40",71.4461%
same,% inhibition Apol 90',"DRC-1, concentration 80",77.7263%
same,% inhibition apPOL 180',"DRC-1, concentration 2.5",-7.978%
same,% inhibition apPOL 180',"DRC-1, concentration 5",-3.837%
same,% inhibition apPOL 180',"DRC-1, concentration 10",18.2291%
same,% inhibition apPOL 180',"DRC-1, concentration 20",34.5428%
same,% inhibition apPOL 180',"DRC-1, concentration 40",57.1907%
same,% inhibition apPOL 180',"DRC-1, concentration 80",71.3539%
same,% inhibition Apo pol 5',"DRC-2, concentration 2.5",3.65%
same,% inhibition Apo pol 5',"DRC-2, concentration 5",11%
same,% inhibition Apo pol 5',"DRC-2, concentration 10",31%
same,% inhibition Apo pol 5',"DRC-2, concentration 20",40%
same,% inhibition Apo pol 5',"DRC-2, concentration 40",37%
same,% inhibition Apo pol 5',"DRC-2, concentration 80",27%
same,% inhibition Apol 40',"DRC-2, concentration 2.5",2.11%
same,% inhibition Apol 40',"DRC-2, concentration 5",13%
same,% inhibition Apol 40',"DRC-2, concentration 10",36%
same,% inhibition Apol 40',"DRC-2, concentration 20",54%
same,% inhibition Apol 40',"DRC-2, concentration 40",58%
same,% inhibition Apol 40',"DRC-2, concentration 80",54%
same,% inhibition ApPOL 90',"DRC-2, concentration 2.5",0.827%
same,% inhibition ApPOL 90',"DRC-2, concentration 5",10%
same,% inhibition ApPOL 90',"DRC-2, concentration 10",34%
same,% inhibition ApPOL 90',"DRC-2, concentration 20",54%
same,% inhibition ApPOL 90',"DRC-2, concentration 40",60%
same,% inhibition ApPOL 90',"DRC-2, concentration 80",59%
same,% inhibition apPOL 180',"DRC-2, concentration 2.5",-5%
same,% inhibition apPOL 180',"DRC-2, concentration 5",4.53%
same,% inhibition apPOL 180',"DRC-2, concentration 10",24%
same,% inhibition apPOL 180',"DRC-2, concentration 20",46%
same,% inhibition apPOL 180',"DRC-2, concentration 40",59%
same,% inhibition apPOL 180',"DRC-2, concentration 80",62%
